Reference: PMC6934184, “Selective DNA-PKcs inhibition extends the therapeutic index of localized radiotherapy and chemotherapy” (The Journal of Clinical Investigation, 2019)

Target: T1, PIK3CG (p110 gamma) (Homo sapiens, UniProt P48736)
T1 construct: purchased Thermo Fisher Scientific (Life Technologies) SelectScreen
Assay: SelectScreen Adapta
Type: biochemical
Procedure: The in vitro kinase selectivity of NU5455 was determined using the SelectScreen Broad Assay Panel (Thermo Fisher Scientific) involving activity and binding assays (Supplemental Table 1). […] Class IA PI3Ks were measured using the p85α subunit.
Kinase [ATP] % Assay Kinase [ATP] % Assay Kinase [ATP] % Assay Kinase [ATP] % Assay
DNA-PK Km app 98.3 Z LATS2 n/a 4.7 L KIT D820E n/a 1.3 L GSK3B (GSK3 beta) Km app -2.5 Z
PIK3C3 (hVPS34) Km app 85.9 A PRKCZ (PKC zeta) Km app 4.7 Z GRK1 n/a 1.3 L BMPR2 n/a -2.5 L
PIK3C2B (PI3K-C2 beta) 10 28.9 A FGFR1 Km app 4.7 Z BRSK2 n/a 1.2 L CDC42 BPB (MRCKB) Km app -2.5 Z
SNF1LK2 Km app 26.6 Z MINK1 Km app 4.6 Z NUAK1 (ARK5) Km app 1.2 A AMPK (A2/B2/G2) n/a -2.6 L
HCK Km app 18.0 Z CSF1R (FMS) Km app 4.3 Z CDK9/cyclin K n/a 1.0 L PRKG1 Km app -2.7 Z
NEK2 Km app 17.8 Z CSNK1G3 (CK1 gamma 3) Km app 4.2 Z NUAK2 n/a 1.0 L KIT T670E n/a -2.8 L
ALK Km app 17.3 Z STK32C (YANK3) n/a 4.2 L CDK2/cyclin O n/a 0.9 L ERBB4 (HER4) Km app -2.8 Z
FGFR3 K650M n/a 16.5 L STK22D (TSSK1) Km app 4.2 Z CAMKK2 (CaMKK beta) n/a 0.9 L PLK4 n/a -2.8 L
SIK3 n/a 16.1 L TAOK3 (JIK) n/a 4.2 L FGFR3 Km app 0.9 Z GRK7 Km app -3.0 Z
LYN A Km app 15.2 Z RPS6KA4 (MSK2) Km app 4.2 Z ULK2 n/a 0.9 L MAPKAPK2 Km app -3.1 Z
BMPR1B (ALK6) n/a 14.5 L PTK2B (FAK2) Km app 4.2 Z KIT D816V n/a 0.9 L FGFR4 Km app -3.1 Z
INSRR (IRR) Km app 14.1 Z CLK2 Km app 4.1 Z CAMK1 (CaMK1) 10 0.8 A CASK n/a -3.1 L
PLK2 Km app 14.1 Z STK24 (MST3) Km app 4.1 Z PTK6 (Brk) Km app 0.7 Z GRK5 Km app -3.2 Z
PRKACA (PKA) Km app 14.0 Z CAMK1D (CaMKI delta) Km app 4.1 Z CAMK2B (CaMKII beta) Km app 0.7 Z EGFR (ErbB1) T790M Km app -3.3 Z
EIF2AK2 (PKR) n/a 13.3 L INSR Km app 4.1 Z ACVR1 (ALK2) n/a 0.7 L PAK4 Km app -3.3 Z
PRKX Km app 12.5 Z IRAK1 Km app 4.0 A ABL1 H396P n/a 0.6 L DAPK3 (ZIPK) Km app -3.4 Z
FGR Km app 12.1 Z SRC N1 Km app 3.9 Z MERTK (cMER) A708S n/a 0.6 L RET M918T n/a -3.5 L
CLK1 Km app 11.7 Z SRPK2 Km app 3.9 Z MAPKAPK5 (PRAK) Km app 0.6 Z PRKCQ (PKC theta) Km app -3.7 Z
MARK3 Km app 11.4 Z RPS6KA6 (RSK4) Km app 3.8 Z AKT1 (PKB alpha) Km app 0.5 Z CAMKK1 (CAMKKA) n/a -3.8 L
PDGFRB (PDGFR beta) Km app 11.0 Z GRK6 Km app 3.7 Z NTRK3 (TRKC) Km app 0.4 Z FLT3 D835Y Km app -3.9 Z
PRKCN (PKD3) Km app 10.7 Z PKN1 (PRK1) Km app 3.6 Z ZAP70 Km app 0.3 Z ROCK2 Km app -4.1 Z
STK16 (PKL12) n/a 10.5 L MAP3K8 (COT) 100 3.5 Z CSNK1A1 (CK1 alpha 1) Km app 0.3 Z CHUK (IKK alpha) Km app -4.2 A
FES (FPS) Km app 10.4 Z FLT4 (VEGFR3) Km app 3.5 Z MYLK (MLCK) n/a 0.2 L AXL Km app -4.2 Z
ABL1 Km app 10.4 Z GRK4 Km app 3.5 Z MKNK2 (MNK2) n/a 0.2 L PIM2 Km app -4.3 Z
MUSK Km app 10.3 Z FRK (PTK5) Km app 3.4 Z AMPK (A1/B1/G3) n/a 0.2 L PAK1 Km app -4.4 Z
MAPK1 (ERK2) Km app 10.1 Z FYN A n/a 3.3 L MAP3K2 (MEKK2) n/a 0.1 L BMPR1A (ALK3) n/a -4.4 L
BRAF 100 9.9 Z CDK1/cyclin A2 n/a 3.3 L CDK8/cyclin C n/a 0.1 L STK4 (MST1) Km app -4.4 Z
IGF1R Km app 9.7 Z KIT V559D T670I n/a 3.1 L MARK2 Km app 0.1 Z PRKCH (PKC eta) Km app -4.6 Z
MAPK14 (p38 alpha) Km app 9.7 Z SPHK2 10 3.1 A ICK n/a 0.0 L SGKL (SGK3) Km app -4.6 Z
LCK Km app 9.6 Z FGFR3 G697C n/a 3.1 L FGFR2 Km app 0.0 Z PI4KB (PI4K beta) Km app -4.7 A
MAPK11 (p38 beta) Km app 9.5 Z RIPK2 n/a 3.1 L AKT2 (PKB beta) Km app 0.0 Z PRKCE (PKC epsilon) Km app -4.9 Z
SRC Km app 9.5 Z PAK6 Km app 3.0 Z EPHB2 Km app -0.1 Z PHKG1 Km app -5.0 Z
CHEK1 (CHK1) Km app 9.3 Z LYN B Km app 3.0 Z TGFBR2 n/a -0.1 L PDGFRA D842V Km app -5.0 Z
CAMK2D (CaMKII delta) Km app 9.3 Z DAPK2 n/a 2.9 L TEK (Tie2) Km app -0.1 Z PRKG2 (PKG2) Km app -5.1 Z
PLK1 Km app 9.2 Z EPHA4 Km app 2.9 Z AURKA (Aurora A) Km app -0.1 Z TYRO3 (RSE) Km app -5.1 Z
RET Y791F Km app 9.2 Z PIK3CG (p110 gamma) Km app 2.9 A KIT D816H n/a -0.2 L TAOK2 (TAO1) Km app -5.1 Z
FLT3 Km app 9.1 Z HIPK1 (Myak) Km app 2.8 Z KIT N822K n/a -0.2 L EPHB4 Km app -5.3 Z
MAPK10 (JNK3) 100 9.0 Z ADRBK2 (GRK3) Km app 2.8 Z PRKACG (PRKAC gamma) n/a -0.2 L AURKC (Aurora C) Km app -5.4 Z
CSNK2A2 (CK2 alpha 2) Km app 8.7 Z STK17B (DRAK2) n/a 2.7 L TEK (TIE2) Y1108F n/a -0.3 L JAK1 Km app -5.7 Z […]

T1 sequence (P48736 whole entry): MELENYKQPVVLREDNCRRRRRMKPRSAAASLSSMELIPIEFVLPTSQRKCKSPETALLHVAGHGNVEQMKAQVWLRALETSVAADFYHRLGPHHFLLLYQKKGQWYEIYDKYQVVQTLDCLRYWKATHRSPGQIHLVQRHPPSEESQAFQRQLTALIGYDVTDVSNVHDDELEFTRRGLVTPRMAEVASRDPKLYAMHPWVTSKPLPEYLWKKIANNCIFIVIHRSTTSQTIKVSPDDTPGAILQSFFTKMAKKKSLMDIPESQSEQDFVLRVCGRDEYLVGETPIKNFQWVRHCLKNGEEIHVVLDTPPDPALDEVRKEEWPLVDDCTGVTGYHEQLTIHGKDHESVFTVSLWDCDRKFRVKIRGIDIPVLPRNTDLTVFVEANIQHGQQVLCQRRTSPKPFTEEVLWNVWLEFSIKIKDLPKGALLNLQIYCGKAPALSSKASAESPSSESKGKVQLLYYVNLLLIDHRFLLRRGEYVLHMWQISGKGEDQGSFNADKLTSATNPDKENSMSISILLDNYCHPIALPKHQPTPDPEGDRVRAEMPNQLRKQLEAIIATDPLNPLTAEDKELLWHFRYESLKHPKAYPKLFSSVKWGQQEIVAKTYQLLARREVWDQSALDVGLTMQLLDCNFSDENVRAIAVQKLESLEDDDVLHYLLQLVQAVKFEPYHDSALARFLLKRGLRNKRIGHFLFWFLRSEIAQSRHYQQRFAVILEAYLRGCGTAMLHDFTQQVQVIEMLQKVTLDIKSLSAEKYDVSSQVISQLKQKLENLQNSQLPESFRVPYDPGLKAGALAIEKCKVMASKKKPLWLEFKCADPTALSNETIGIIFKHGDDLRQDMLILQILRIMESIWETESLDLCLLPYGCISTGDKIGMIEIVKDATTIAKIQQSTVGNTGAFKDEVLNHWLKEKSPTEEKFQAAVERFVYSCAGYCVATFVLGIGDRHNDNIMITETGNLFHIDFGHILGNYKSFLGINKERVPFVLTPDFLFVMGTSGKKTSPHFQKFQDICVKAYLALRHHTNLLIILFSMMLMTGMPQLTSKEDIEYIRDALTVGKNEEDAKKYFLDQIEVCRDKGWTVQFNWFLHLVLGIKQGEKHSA

With CN(C(=O)CN1CCOCC1)c1ccc2sc3c(-c4cccc5c(=O)cc(N6CC7CCC(C6)O7)oc45)cccc3c2c1 [NU5455] the inhibition at 1 µM was 2.9%.
